Reference: the supplement of paper PMC10307832

Tests used:
Test in all cases: relative viability (nuclei count vs DMSO), 5 days (fraction); higher = more cells survive
[1] = compound: O=C(/C=C/c1cccnc1)NCCCCC1CCN(C(=O)c2ccccc2)CC1 [Daporinad] + O=C(CCCCCCC(=O)Nc1ccccc1)NO [Vorinostat] (partner 1 µM)
Method in brief: (§1)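 Relative viability was taken as the ratio of nuclei in treated wells to nuclei in vehicle wells. Lung cancer cell lines in 1536-well plates received compounds by pin tool one day after seeding, either one drug alone or a fixed anchor-drug dose plus five library-drug doses (not always all listed) in √10 steps. Nuclei were counted on 4× images after 5 days of treatment, and values are medians of duplicate plates.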

[2] = compound: O=C(/C=C/c1cccnc1)NCCCCC1CCN(C(=O)c2ccccc2)CC1 [Daporinad] + CC(C)C[C@H](NC(=O)[C@H](Cc1ccccc1)NC(=O)c1cnccn1)B(O)O [Bortezomib] (partner 0.002 µM)
Method in brief: as §1

[3] = compound: COc1cc(Nc2ncc(F)c(Nc3ccc4c(n3)NC(=O)C(C)(C)O4)n2)cc(OC)c1OC [R406] + C[C@@H](Oc1cc(-c2cnn(C3CCNCC3)c2)cnc1N)c1c(Cl)ccc(F)c1Cl [Crizotinib] (partner 1 µM)
Method in brief: as §1

[4] = compound: COc1cc(Nc2ncc(F)c(Nc3ccc4c(n3)NC(=O)C(C)(C)O4)n2)cc(OC)c1OC [R406] + CC(=O)c1c(C)c2cnc(Nc3ccc(N4CCNCC4)cn3)nc2n(C2CCCC2)c1=O [Palbociclib] (partner 0.5 µM)
Method in brief: as §1

| Cell Line | relative viability ([1]; first compound 0.0005 µM) | relative viability ([1]; first compound 0.001581 µM) | relative viability ([1]; first compound 0.005 µM) | relative viability ([1]; first compound 0.01581 µM) | relative viability ([2]; first compound 0.001581 µM) | relative viability ([2]; first compound 0.005 µM) | relative viability ([2]; first compound 0.01581 µM) | relative viability ([3]; first compound 0.08 µM) | relative viability ([3]; first compound 0.253 µM) | relative viability ([3]; first compound 0.8 µM) | relative viability ([3]; first compound 2.53 µM) | relative viability ([3]; first compound 8 µM) | relative viability ([4]; first compound 0.08 µM) | relative viability ([4]; first compound 0.253 µM) | relative viability ([4]; first compound 0.8 µM) | relative viability ([4]; first compound 2.53 µM) | relative viability ([4]; first compound 8 µM) | relative viability ([2]; first compound 0.0005 µM) |
| --- | --- | --- | --- | --- | --- | --- | --- | --- | --- | --- | --- | --- | --- | --- | --- | --- | --- | --- |
| NCI-H441 | 0.913 | 0.677 | 0.811 | 0.778 | 0.476 | 0.486 | 0.443 | 0.72 | 0.975 | 0.846 | 0.599 | 0.461 | 0.214 | 0.191 | 0.204 | 0.137 | 0.118 | – |
| NCI-H460 | 0.743 | 0.719 | 0.687 | 0.643 | 1.17 | 1.05 | 1.05 | 0.829 | 1.09 | 1.16 | – | 0.441 | 0.157 | 0.2 | 0.183 | 0.0283 | 0.0792 | 1.1 |
| NCI-H520 | 0.747 | 0.284 | 0.228 | 0.165 | 0.686 | 0.223 | 0.151 | 0.735 | 1.09 | 0.875 | 0.58 | 0.269 | 0.173 | 0.209 | 0.244 | 0.164 | 0.108 | 0.624 |
| NCI-H647 | 0.527 | 0.483 | 0.534 | 0.49 | 1.04 | 1.14 | 1.01 | 0.987 | 1.35 | 1.26 | 0.573 | 0.0968 | 0.387 | 0.37 | 0.426 | 0.261 | 0.0695 | 1.03 |
| NCI-H650 | 0.465 | 0.488 | 0.511 | 0.399 | 0.817 | 0.669 | 0.833 | 0.809 | 0.848 | 0.713 | 0.59 | 0.532 | 0.34 | 0.412 | 0.322 | 0.289 | 0.253 | 0.622 |
| NCI-H661 | 0.766 | 0.709 | 0.461 | 0.568 | 0.867 | 0.659 | 0.477 | – | 1.01 | 1.02 | 0.882 | 1.14 | 0.398 | 0.411 | 0.382 | 0.42 | 0.322 | 0.941 |
| NCI-H727 | 1.11 | 1.25 | 1.45 | 1.03 | 0.798 | 0.838 | 0.858 | 0.866 | 0.852 | 0.898 | 0.714 | 0.301 | 0.621 | 0.702 | 0.752 | 0.652 | 0.609 | 0.813 |
| NCI-H838 | 0.763 | 0.814 | 0.49 | 0.418 | 1.2 | 0.828 | 0.443 | 0.806 | 0.945 | 0.949 | 0.612 | 0.516 | 0.227 | 0.236 | 0.247 | 0.179 | 0.107 | 0.795 |
| NCI-H1355 | 0.652 | 0.738 | 0.615 | 0.532 | 1.2 | 1.35 | 1.07 | 1.09 | 1.14 | 1.25 | 0.909 | 0.687 | 0.404 | 0.366 | 0.416 | 0.329 | 0.278 | 1.16 |
